Experiments:
Assay in all cases: REVEAL Epitope Discovery System in vitro MHC-peptide binding score
[1] = target: HLA-A*03:01 (Homo sapiens, UniProt P04439); conditions: positive control peptide set at 100%, greater than 50 = good or high affinity binding
Description: (§1) Actual binding affinities for certain HLA class I alleles (A*02:01, A*03:01. A*11:01, and B*08:01) were assessed in vitro for exemplary overlapping 9 amino acid peptide sequences within a portion of the 26 amino acid junction region spanning the CD28 and 4-1BB junction. Specifically, assessment was of a series of overlapping 9-mer peptides derived from the sequence […] (set forth in SEQ ID NO: 7), which contains a portion of the CD28 transmembrane domain and 4-1BB costimulatory domain spanning the junction between the domains (bond joining the two amino acids noted in underline). In addition, a series of overlapping 9-mer peptides of each of a number of different variants of this portion also were assessed, each variant containing a mutation or mutations in this region as described in Example 2.
(§2) The various 9-mer overlapping peptides were synthesized and their purity tested by MALDI-TOF Mass Spectrometry. The synthetic peptides were then incubated with recombinant MHC molecules to assess binding properties using the REVEAL Epitope Discovery System, which is a high-throughput binding assay that measures the degree to which each peptide is able to stabilize a ternary MHC-peptide complex (ProImmune, Oxford, United Kingdom). Each peptide was separately tested for this ability with respect to each of the HLA class I alleles, normalized to the degree observed for a positive control (known T cell epitope for the relevant allele). The results are reported as a score, in which the binding was normalized to the positive control peptide set at 100%.

[2] = target: HLA-A*02:01 (Homo sapiens, UniProt P04439, D140Y/D185E/D98H/E176V/E277Q/G131W/G231S/I119V/I121R/I166T/I218V/L300P/L318F/N151K/N90K/P208A/P217A/Q86G/Q94H/R138H/R169H/T345S); conditions: REVEAL score, positive control peptide set at 100%; greater than 50 = good or high affinity binding
Description: as §1, §2

[3] = target: HLA-A*11:01 (Homo sapiens, UniProt P04439, A114D/D185E/E176A/F33Y/L180Q/S129P/T187R); parameters: key: % binding, normalized to positive control peptide set at 100%; conditions: binding normalized to positive control peptide set at 100%, greater than 50 considered good or high affinity binding
Description: as §1, §2

[4] = target: HLA-B*08:01 (Homo sapiens, UniProt P01889, A93T/A95T/D138N/E176V/E187T/K202T/Q94N/R180D/S35A/V36M/Y33D/Y91F); parameters: key: % binding, normalized to positive control peptide set at 100%; conditions: binding normalized to positive control peptide set at 100%, greater than 50 considered good or high affinity binding
Description: as §1, §2

Row | Sequence | A*03:01 In Vitro [1] | A*02:01 In Vitro Score [2] | A*11:01 In Vitro Score [3] | B*08:01 In Vitro Score [4]
1 | IIFWVARGR [9-mer variant junction peptide, K28A] | 18.60 | 9.60 | 70.60 | 0.30
2 | FWVKRGLKK [9-mer variant junction peptide, R31L] | – | 9.40 | – | 6.30
3 | WVKRGAKKL [9-mer variant junction peptide, R31A] | 4.10 | 4.70 | 4.60 | 34.10
4 | IFWVHRGRK [9-mer variant junction peptide, K28H] | 37.80 | 7.10 | 36.60 | 0.10
5 | IIFWVLRGR [9-mer variant junction peptide, K28L] | 2.80 | 8.40 | 35.20 | 0.40
6 | IFWVQRGNK [9-mer variant junction peptide, K28Q/R31N] | 23.20 | 16.10 | 67.50 | 0.10
7 | VAFIIFWVR [9-mer variant junction peptide, K28R] | 0.70 | 1.20 | 34.60 | 0.10
8 | WVKRGSKKL [9-mer variant junction peptide, R31S] | 1.90 | 3.00 | 11.80 | 56.10
9 | WVQRGRKKL [9-mer variant junction peptide, K28Q] | 4.90 | 8.10 | 12.80 | 45.10
10 | IFWVQRGAK [9-mer variant junction peptide, K28Q/R31A] | 17.00 | 11.70 | 61.30 | 0.20
11 | IFWVKRGSK [9-mer variant junction peptide, R31S] | 10.40 | 2.40 | 47.90 | 1.20

Now from value to sequence:

Row | A*03:01 In Vitro [1] | A*02:01 In Vitro Score [2] | A*11:01 In Vitro Score [3] | B*08:01 In Vitro Score [4] | Sequence
12 | 9.00 | 2.20 | 30.90 | 3.20 | IFWVKRGHK [9-mer variant junction peptide, R31H]
13 | 30.10 | 4.70 | 77.50 | 0.20 | IIFWVHRGR [9-mer variant junction peptide, K28H]
14 | 1.30 | 8.80 | 13.80 | 32.40 | WVARGRKKL [9-mer variant junction peptide, K28A]
15 | 18.00 | 5.80 | 72.80 | 0.10 | IIFWVQRGR [9-mer variant junction peptide, K28Q]
16 | 22.00 | 13.80 | 69.70 | 2.20 | IFWVKRGAK [9-mer variant junction peptide, R31A]
17 | 0.70 | 70.60 | 25.10 | 0.10 | VAFIIFWVS [9-mer variant junction peptide, K28S]
18 | – | – | 5.00 | – | WVQRGNKKS [9-mer variant junction peptide, mutation printed K28Q/L34S]
19 | – | – | 8.90 | – | FWVARGRKK [9-mer variant junction peptide, K28A]

— patent US12139526B2, “Modified chimeric receptors and related compositions and methods” (Juno Therapeutics, Inc., priority 2015, dated 2024)
